Series [1] relates to KRAS^G12C-mutated H358 cells. As to the kind of experiment: cells. The settings on record: Homo sapiens, NCI-H358, 120 h, read-out: NCI-H358 IC50. The procedure: The main instrument used in this assay was a Nivo multi-label analyzer (PerkinElmer).
The assay was carried out in duplicate. 78 μL of medium was added to the intermediate plate, and then 2 μL of the serially diluted compound was transferred to each well of the intermediate plate according to the corresponding position. After mixing well, 20 μL per well was transferred to the cell plate. […] The cell plate was incubated in a carbon dioxide incubator for 5 days. Another cell plate was prepared, and the signal value of the cell plate was read on the day of compound addition as the maximum value (Max value in the equation below) to participate in data analysis. 25 μL of cell viability chemiluminescence detection reagent was added to each well of the cell plate, and the plate was incubated at room temperature for 10 minutes to stabilize the luminescence signal. A multi-label analyzer was used for reading the plate. • 3) 25 μL of cell viability chemiluminescence detection reagent was added to each well of the cell plate, and the plate was incubated at room temperature for 10 minutes to stabilize the luminescence signal. A multi-label analyzer was used for reading the plate.

Series [2] can be described thus: In vitro stability in liver microsomes, SD rats. The series is classed as in vitro ADME. Particulars: rat, 0.5 mg/mL. The procedure:
(§1) Metabolic stabilities of the assay compound in liver microsomes of CD-1 mice, SD rats, beagle dogs, cynomolgus monkeys, and human were assayed, respectively.
(§2) Two 96-well incubation plates were prepared and named T60 incubation plate and NCF60 incubation plate, respectively. 445 μL of microsomal working solutions (liver microsomal protein concentration of 0.56 mg/mL) were added to the T60 incubation plate and the NCF60 incubation plate, respectively, and then the above incubation plates were pre-incubated in a 37° C. water bath for about 10 minutes.
(§3) After the pre-incubation, 5 μL of working solutions of the assay sample or the control compound were added to the T60 incubation plate and the NCF60 incubation plate, respectively, and the mixture was mixed well. 50 μL of potassium phosphate buffer was added to each well of the NCF60 incubation plate to initiate the reaction. 180 μL of stop solution (200 ng/mL tolbutamide and 200 ng/mL labetalol in acetonitrile) and 6 uL of NADPH regeneration system working solution were added to the T0 stop plate, and 54 μL of sample was transferred from T60 incubation plate to T0 stop plate (generation of T0 sample). The reaction was initiated by adding 44 μL of NADPH regeneration system working solution to each well of the T60 incubation plate. Only 54 μL of microsome working solution, 6 uL of NADPH regeneration system working solution and 180 μL of stop solution were added to the Blank plate. Therefore, in samples of the assay compound or the control compound, the final reaction concentration of compound, testosterone, diclofenac and propafenone was 1 μM, the concentration of liver microsomes was 0.5 mg/mL, and the final reaction concentrations of DMSO and acetonitrile in the reaction system were 0.01% (v/v) and 0.99% (v/v), respectively. […] All samples were injected and analyzed by liquid chromatography-tandem mass spectrometry.
On the technique in general: Liver microsomes are a subcellular fraction often used to study metabolism.

The nature of series [3]: In vitro stability in liver microsomes, cynomolgus monkeys. The series is classed as in vitro ADME. The settings on record: cynomolgus monkey, 0.5 mg/mL. As for the experimental part:
as §1, §2, §3

As to `C=C(F)C(=O)N1CCN(c2nc(OC[C@@]34CCCN3C[C@H](F)C4)nc3c2CO[C@H](c2c(F)c(N)cc(C)c2C(F)(F)F)C3)C[C@@H]1CC#N` [Compound of formula (I)], the IC50 in series [1] was 0.6 nM. In addition, the CLint scaled at 1 μM in series [2] is 108 mL/min/kg; in series [3] it was 303 mL/min/kg. In addition, the half-life at 1 μM in series [2] came to 23 min; in series [3] it was 6.2 min. The microsomal CLint at 1 μM in series [2] (read-out: CLint(hep)) worked out at 60.2 µL/min/mg; in series [3] (read-out: CLint(hep)), 225 µL/min/mg.

Usually IC50 stands for the point on the concentration scale where inhibition reaches its midpoint. In general, CLint scaled refers to the capacity of the preparation to metabolise the compound, expressed as a volume cleared per time. In general, half-life refers to the time in which the quantity being followed falls by half. Higher therefore signals slow decline.

Source of the values: US20250129102A1, “CRYSTAL FORM OF PYRIMIDINE HETEROCYCLIC COMPOUND AND PREPARATION METHOD THEREFOR” (D3 Bio (Wuxi) Co., Ltd., priority 2021, published 2025).
